Reference: ChEMBL document CHEMBL5528083, “Discovery of a Novel Thienopyrimidine Compound as a Urate Transporter 1 and Glucose Transporter 9 Dual Inhibitor with Improved Efficacy and Favorable Druggability” (J Med Chem, 2024)

Experiments:
[1] = species on record: Mus musculus; assay: Reduction in serum uric acid level in acute hyperuricemia state Kunming mouse model assessed as SUA level by measuring decrease ratio relative to control; assay type: functional; set-up: concentration or dose not given beside the values
[2] = species on record: Mus musculus; assay: Reduction in serum uric acid level in acute hyperuricemia state Kunming mouse model assessed as SUA level; assay type: functional
[3] = target: T1, Solute carrier family 22 member 12 (Homo sapiens, UniProt Q96S37); assay: Inhibition of human URAT1 expressed in HEK293T cells using 14C- uric acid assessed as uric acid absorption by measuring intracellular liquid radiation value by liquid scintillation counting analysis; assay type: cell-based
T1 sequence (Q96S37 whole entry): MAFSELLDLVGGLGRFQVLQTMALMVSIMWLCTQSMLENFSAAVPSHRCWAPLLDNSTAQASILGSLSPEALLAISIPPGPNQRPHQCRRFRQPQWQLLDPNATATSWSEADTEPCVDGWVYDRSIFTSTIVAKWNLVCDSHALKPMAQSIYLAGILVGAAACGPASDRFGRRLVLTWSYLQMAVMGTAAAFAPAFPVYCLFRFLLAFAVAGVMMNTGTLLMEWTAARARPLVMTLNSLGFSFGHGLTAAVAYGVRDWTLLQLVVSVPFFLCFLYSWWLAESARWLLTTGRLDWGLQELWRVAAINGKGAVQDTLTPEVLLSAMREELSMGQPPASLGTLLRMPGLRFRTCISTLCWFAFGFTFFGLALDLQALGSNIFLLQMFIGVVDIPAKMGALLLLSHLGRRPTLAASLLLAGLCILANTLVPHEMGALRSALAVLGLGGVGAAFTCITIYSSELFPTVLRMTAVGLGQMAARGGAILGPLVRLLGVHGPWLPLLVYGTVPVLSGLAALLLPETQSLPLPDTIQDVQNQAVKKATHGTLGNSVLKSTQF

[4] = target: Xanthine dehydrogenase/oxidase (Bos taurus, UniProt P80457); assay: Inhibition of bovine XOD using xanthine as substrate assessed as inhibitory ratio at 10 uM by spectrophotometric analysis relative to control; settings: cattle
[5] = tested on: Mus musculus; assay: Reduction in serum uric acid level in acute hyperuricemia state Kunming mouse model assessed as SUA level at 2 mg/kg, po (reference value: 1037 +/- 106.59 uM); assay type: functional
[6] = target: T2, Solute carrier family 2, facilitated glucose transporter member 9 (Mus musculus) (UniProt Q3T9X0); assay: Inhibition of mouse EGFP-tagged GLUT9 expressed in HEK293T cells assessed as inhibition rate by measuring relative current at 5 uM by patch clamp electrophysiological analysis relative to control; assay type: cell-based; set-up: scale not given: the % may be the effect or the level left
T2 sequence (whole entry): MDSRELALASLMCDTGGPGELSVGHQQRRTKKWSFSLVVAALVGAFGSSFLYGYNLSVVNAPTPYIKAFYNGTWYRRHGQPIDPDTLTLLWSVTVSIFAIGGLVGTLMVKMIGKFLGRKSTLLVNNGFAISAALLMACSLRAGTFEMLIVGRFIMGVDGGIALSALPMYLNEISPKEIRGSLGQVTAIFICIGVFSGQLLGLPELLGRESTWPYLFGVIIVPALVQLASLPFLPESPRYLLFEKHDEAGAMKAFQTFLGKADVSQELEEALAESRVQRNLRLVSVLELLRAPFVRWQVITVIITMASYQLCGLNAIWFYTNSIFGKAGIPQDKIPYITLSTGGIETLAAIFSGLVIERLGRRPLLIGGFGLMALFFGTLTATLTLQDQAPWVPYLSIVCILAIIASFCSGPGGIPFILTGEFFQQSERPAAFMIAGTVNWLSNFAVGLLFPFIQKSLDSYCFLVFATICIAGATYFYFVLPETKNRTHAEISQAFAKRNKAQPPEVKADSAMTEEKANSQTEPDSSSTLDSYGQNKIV

Chain of Xanthine dehydrogenase/oxidase (P80457 whole entry): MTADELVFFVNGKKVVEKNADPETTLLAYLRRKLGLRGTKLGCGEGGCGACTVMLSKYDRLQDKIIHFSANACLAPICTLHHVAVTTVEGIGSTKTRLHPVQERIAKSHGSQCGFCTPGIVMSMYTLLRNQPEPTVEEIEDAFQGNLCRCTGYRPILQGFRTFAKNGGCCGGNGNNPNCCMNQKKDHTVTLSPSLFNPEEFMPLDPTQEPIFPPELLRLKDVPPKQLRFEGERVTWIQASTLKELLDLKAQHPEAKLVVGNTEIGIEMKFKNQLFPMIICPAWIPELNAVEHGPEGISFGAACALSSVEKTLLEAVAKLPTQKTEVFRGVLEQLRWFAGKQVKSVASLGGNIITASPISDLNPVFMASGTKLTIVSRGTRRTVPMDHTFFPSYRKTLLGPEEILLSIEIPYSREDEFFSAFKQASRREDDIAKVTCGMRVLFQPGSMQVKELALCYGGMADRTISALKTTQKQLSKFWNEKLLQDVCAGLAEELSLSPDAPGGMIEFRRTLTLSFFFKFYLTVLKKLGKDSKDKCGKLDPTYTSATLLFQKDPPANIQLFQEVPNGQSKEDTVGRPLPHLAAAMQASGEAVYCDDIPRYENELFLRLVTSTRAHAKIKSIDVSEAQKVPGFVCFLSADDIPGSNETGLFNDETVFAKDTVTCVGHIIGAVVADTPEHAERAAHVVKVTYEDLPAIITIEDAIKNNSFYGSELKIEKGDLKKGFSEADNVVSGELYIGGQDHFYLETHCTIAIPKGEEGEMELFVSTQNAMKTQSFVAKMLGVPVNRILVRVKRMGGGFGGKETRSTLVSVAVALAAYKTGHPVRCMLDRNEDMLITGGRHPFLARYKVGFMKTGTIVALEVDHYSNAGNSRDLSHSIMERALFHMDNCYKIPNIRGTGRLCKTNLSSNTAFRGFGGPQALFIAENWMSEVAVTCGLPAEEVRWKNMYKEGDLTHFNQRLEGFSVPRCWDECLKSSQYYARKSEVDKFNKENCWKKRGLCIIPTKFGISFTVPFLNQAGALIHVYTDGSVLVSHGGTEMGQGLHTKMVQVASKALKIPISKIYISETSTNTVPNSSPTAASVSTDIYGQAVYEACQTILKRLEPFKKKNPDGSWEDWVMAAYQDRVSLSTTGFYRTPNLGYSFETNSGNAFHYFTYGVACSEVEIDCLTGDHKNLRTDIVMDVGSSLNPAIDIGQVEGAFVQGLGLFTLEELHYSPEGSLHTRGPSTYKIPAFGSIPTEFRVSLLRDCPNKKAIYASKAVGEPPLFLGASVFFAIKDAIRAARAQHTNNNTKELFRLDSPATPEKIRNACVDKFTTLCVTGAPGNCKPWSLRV

SMILES | Activity [1] [%] | Activity [2] [µM] | also measured
O=C(O)CSc1nc(Nc2ccc(C3CC3)c3ccccc23)c2ccsc2n1 | 74.5 | 368.2 | –
COc1cc2nc(SC(C)(C)C(=O)O)nc(Nc3ccc(C4CC4)c4ccccc34)c2cc1OC | 7.8 | 976.2 | –
O=C(O)CSc1nccc(Nc2ccc(C3CC3)c3ccccc23)n1 | 68.2 | 442.4 | –
CC(C)(Sc1nc2c(c(Nc3ccc(C4CC4)c4ccccc34)n1)CCC2)C(=O)O | 92.2 | 256.6 | IC50 [3]: 3.96 µM
O=C(O)CCSc1nc(Nc2ccc(C3CC3)c3ccccc23)c2ccsc2n1 | 92.7 | 196.4 | –
CC(Sc1nc(Nc2ccc(C3CC3)c3ccccc23)c2ccccc2n1)C(=O)O (stereo not given) | 21.5 | 911.8 | –
CC(Sc1nc2c(c(Nc3ccc(C4CC4)c4ccccc34)n1)SCC2)C(=O)O (stereo not given) | – | 1114.8 | –
CC(C)(Sc1nccc(Nc2ccc(C3CC3)c3ccccc23)n1)C(=O)O | 91 | 212.6 | IC50 [3]: 2.51 µM
CC(C)(Sc1nc2c(c(Nc3ccc(C4CC4)c4ccccc34)n1)COC2)C(=O)O | – | 1040 | –
O=C(O)C1(Sc2nc(Nc3ccc(C4CC4)c4ccccc34)c3ccccc3n2)CCC1 | 51.6 | 608.8 | –
O=C(O)CSc1nc2c(c(Nc3ccc(C4CC4)c4ccccc34)n1)COC2 | 2.3 | 1014.4 | –
O=C(O)CSc1nc(Nc2ccc(C3CC3)c3ccccc23)c2ccccc2n1 | 82.9 | 294.2 | –
O=C(O)CSc1nc2c(c(Nc3ccc(C4CC4)c4ccccc34)n1)SCC2 | 88.8 | 285.8 | –
O=C(O)CCSc1nc2c(c(Nc3ccc(C4CC4)c4ccccc34)n1)COC2 | 26.1 | 797.6 | –
O=C(O)CCSc1nc2c(c(Nc3ccc(C4CC4)c4ccccc34)n1)CCC2 | 95.7 | 226.6 | IC50 [3]: 3.75 µM
CC(C)(Sc1nc(Nc2ccc(C3CC3)c3ccccc23)c2sccc2n1)C(=O)O | 68.5 | 425.4 | –
Cc1nc(-c2ccc(OCC(C)C)c(C#N)c2)sc1C(=O)O [FEBUXOSTAT] | – | – | inhibition at 10 µM [4]: 102%
CC(Sc1nc2ncccc2n1-c1ccc(C2CC2)c2ccccc12)C(=O)O (stereo not given) | – | – | Activity [5]: 706.25 µM
COc1cc2nc(SCCC(=O)O)nc(Nc3ccc(C4CC4)c4ccccc34)c2cc1OC | 23.6 | 828 | –

SMILES | Activity [1] [%] | Activity [2] [µM] | also measured
COc1cc2nc(SCCCC(=O)O)nc(Nc3ccc(C4CC4)c4ccccc34)c2cc1OC | 62.3 | 465.4 | –
CC(Sc1nc2c(c(Nc3ccc(C4CC4)c4ccccc34)n1)COC2)C(=O)O (stereo not given) | 4.5 | 994.41 | –
CC(Sc1nc(Nc2ccc(C3CC3)c3ccccc23)c2ccc(F)cc2n1)C(=O)O (stereo not given) | 60.7 | 482.4 | –
O=C(O)C1(Sc2nccc(Nc3ccc(C4CC4)c4ccccc34)n2)CCC1 | 58.7 | 537.8 | –
O=C(O)CCCSc1nc2c(c(Nc3ccc(C4CC4)c4ccccc34)n1)COC2 | – | 1120.8 | –
O=C(O)CCCSc1nccc(Nc2ccc(C3CC3)c3ccccc23)n1 | 92.4 | 198.2 | IC50 [3]: 4.73 µM
O=C(O)CCSc1nc(Nc2ccc(C3CC3)c3ccccc23)c2ccccc2n1 | 84.7 | 276.2 | –
CC(C)(Sc1nc(Nc2ccc(C3CC3)c3ccccc23)c2ccc(F)cc2n1)C(=O)O | 82.4 | 284.8 | –
O=C(O)C1(Sc2nc(Nc3ccc(C4CC4)c4ccccc34)c3ccsc3n2)CCC1 | 35.8 | 734.6 | –
O=C(O)C1(Sc2nc(Nc3ccc(C4CC4)c4ccccc34)c3ccc(F)cc3n2)CCC1 | 33 | 734.6 | –
CC(C)(Sc1nc(Nc2ccc(C3CC3)c3ccccc23)c2ccsc2n1)C(=O)O | 66.2 | 447.2 | –
CCc1oc2ccccc2c1C(=O)c1cc(Br)c(O)c(Br)c1 [BENZBROMARONE] | 37.3 | 753.2 | Activity [6]: 74.7%
O=C(O)C1(Sc2nc3c(c(Nc4ccc(C5CC5)c5ccccc45)n2)CCC3)CCC1 | 50.3 | 614.6 | –
COc1cc2nc(SC(C)C(=O)O)nc(Nc3ccc(C4CC4)c4ccccc34)c2cc1OC (stereo not given) | 1 | 1039.4 | –
COc1cc2nc(SC3(C(=O)O)CCC3)nc(Nc3ccc(C4CC4)c4ccccc34)c2cc1OC | 89.1 | 214.4 | –
O=C(O)CCSc1nc2c(c(Nc3ccc(C4CC4)c4ccccc34)n1)SCC2 | 3.54 | 1013.8 | –
COc1cc2nc(SCC(=O)O)nc(Nc3ccc(C4CC4)c4ccccc34)c2cc1OC | 91.3 | 193.4 | IC50 [3]: 4.86 µM
CC(C)(Sc1nc2c(c(Nc3ccc(C4CC4)c4ccccc34)n1)SCC2)C(=O)O | 87.5 | 297.2 | –
CC(Sc1nc(Nc2ccc(C3CC3)c3ccccc23)c2sccc2n1)C(=O)O (stereo not given) | 69.9 | 412 | –

SMILES | Activity [1] [%] | Activity [2] [µM] | also measured
O=C(O)CCSc1nc(Nc2ccc(C3CC3)c3ccccc23)c2sccc2n1 | 91.3 | 209.6 | IC50 [3]: 2.75 µM
O=C(O)CSc1nc(Nc2ccc(C3CC3)c3ccccc23)c2ccc(F)cc2n1 | 90.6 | 210.4 | –
O=C(O)C1(Sc2nc(Nc3ccc(C4CC4)c4ccccc34)c3sccc3n2)CCC1 | 34.8 | 744 | –
O=C(O)CCCSc1nc(Nc2ccc(C3CC3)c3ccccc23)c2ccsc2n1 | 89.6 | 225 | –
O=C(O)CCSc1nc(Nc2ccc(C3CC3)c3ccccc23)c2ccc(F)cc2n1 | 13.5 | 912.4 | –
O=C(O)C1(Sc2nc3c(c(Nc4ccc(C5CC5)c5ccccc45)n2)SCC3)CCC1 | 3.42 | 1014.8 | –
CC(Sc1nc(Nc2ccc(C3CC3)c3ccccc23)c2ccsc2n1)C(=O)O (stereo not given) | 20 | 884 | –
O=C(O)C1(Sc2nc3c(c(Nc4ccc(C5CC5)c5ccccc45)n2)COC3)CCC1 | 1.5 | 1021.4 | –
CC(Sc1nc2c(c(Nc3ccc(C4CC4)c4ccccc34)n1)CCC2)C(=O)O (stereo not given) | 52.6 | 594.6 | –
O=C(O)CSc1nc2c(c(Nc3ccc(C4CC4)c4ccccc34)n1)CCC2 | 24.9 | 831.4 | –
O=C(O)CCSc1nccc(Nc2ccc(C3CC3)c3ccccc23)n1 | 24.6 | 880.2 | –
CC(Sc1nccc(Nc2ccc(C3CC3)c3ccccc23)n1)C(=O)O (stereo not given) | 88.9 | 234 | –
O=C(O)CSc1nc(Nc2ccc(C3CC3)c3ccccc23)c2sccc2n1 | 1.1 | 1062.6 | –
O=C(O)CCCSc1nc2c(c(Nc3ccc(C4CC4)c4ccccc34)n1)CCC2 | 22.6 | 851 | –
CC(C)(Sc1nc(Nc2ccc(C3CC3)c3ccccc23)c2ccccc2n1)C(=O)O | 92.2 | 200.8 | IC50 [3]: 4.35 µM
O=C(O)CCCSc1nc(Nc2ccc(C3CC3)c3ccccc23)c2ccc(F)cc2n1 | 9.9 | 944.6 | –
O=C(O)CCCSc1nc2c(c(Nc3ccc(C4CC4)c4ccccc34)n1)SCC2 | 62 | 514.4 | –
O=C(O)CCCSc1nc(Nc2ccc(C3CC3)c3ccccc23)c2ccccc2n1 | 64.6 | 478.2 | –
